Assay results reported in PubChem BioAssay AID1963968 (Molecular Pharmacology Branch, DTP, NCI, 2024).

Tested on: 945468-187-T-J3-PDC spheroids with HUVEC/MSC, viability
Test: Anticancer human tumor 945468-187-T-J3-PDC patient-derived rectal carcinoma cell line growth inhibition [PI3K]
Details: for IC50: curve of first compound; for viability, T/C: stronger effect = lower value; active = viability on the fitted dose curve at most 10% of control; inactive = the rest
Source text: Combinatorial screen of targeted agents with the PI3K inhibitors inavolisib, alpelisib, duvelisib, and copanlisib in multi-cell type tumor spheroids
A high-throughput screen of multi-cell type tumor spheroids was designed to identify active combinations of targeted small molecules and PI3K pathway inhibitors. Complex spheroids include a stromal component modeled by human endothelial cells (HUVEC) and fibroblasts modeled by human mesenchymal stem cells (MSCs). The concentration ranges selected for each drug and investigational agent were based upon clinically achievable concentrations if the clinical Cmax of the agent was known.
Compounds. The drugs and investigational agents: inavolisib (NSC800729), alpelisib (NSC765974), duvelisib (NSC772469), copanlisib (NSC816437), ipatasertib (NSC767898), afuresertib (NSC778305), talazoparib (NSC767125), sapanisertib (NSC764658), selumetinib (NSC741078), tovorafenib (DAY101, NSC766906), vemurafenib (NSC761431), ravoxertinib (NSC781343), sotorasib (NSC818433), MRTX1133 (NSC 836407), abemaciclib (NSC 768073), palbociclib (NSC758247), venetoclax (NSC 766270), SY5609 (NSC837396), enzalutamide (NSC755605), and darolutamide (NSC825331), were obtained from the National Cancer Institute (NCI) Developmental Therapeutics Program Chemical Repository. The FDA-approved anticancer drug set is available from the NCI Developmental Therapeutics Program. […] The stock solutions were prepared in dimethyl sulfoxide (DMSO, Sigma-Aldrich, St. Louis, MO, cat. D2650) at 800-fold the tested concentration and stored at -70 degrees C prior to their use. All drugs and investigational agents were tested over a range starting from a high concentration at or near the clinical Cmax and decreasing in half-log increments. If the clinical Cmax for an agent had not been determined, the highest concentration tested was 10 microM.
Cell Culture. All cells were maintained in an incubator at 37 degrees C and 5% CO2 with 95% humidity. The PDC lines were cultured according to standard operating procedures established by the NCI PDMR (https://pdmr.cancer.gov/sops/default.htm). All PDCs were thawed and cultured in Matrigel-coated flasks prepared with a working solution of 1X Ham's F-12 nutrient mix, without supplementation (Invitrogen, Waltham, MA, cat. 11765054), 100 U/mL penicillin-streptomycin (Invitrogen, cat. 15140122), and 2.5% Matrigel (Corning Inc., Corning, NY, cat. 354248) for the first three passages. The 354836-022-R-J1-PDC, 475296-252-R-J1-PDC, and 997726-040-R-J2-PDC lines were cultured in 6A media, which includes advanced DMEM/F-12 (Thermo Fisher Scientific, cat. 12634028), 10 mM HEPES (Thermo Fisher Scientific, cat. 15630080), 1X GlutaMAX supplement (Thermo Fisher Scientific, cat. 35050061), 0.1 mg/mL primocin (InvivoGen, San Diego, CA, cat. ant-pm-2), 10% defined fetal bovine serum, heat inactivated (HyClone Laboratories Inc., Logan, UT, cat. SH30070.03HI), 50% L-WRN conditioned media (ATCC, cat. CRL-3276), 1.25 mM N-Acetyl-L-cysteine (Sigma-Aldrich, cat. A9165), 10 mM nicotinamide (Sigma-Aldrich, cat. N0636), 1X B-27 supplement (Thermo Fisher Scientific, cat. 17504044), 1X N-2 supplement (Thermo Fisher Scientific, cat. 17502048), and 10 microM Y-27632 dihydrochloride (Tocris Bioscience, Bristol, United Kingdom, cat. 1254). The 624824-186-R-J2-PDC line was cultured in 6C/Colon 1B media, which includes all 6A media components plus 50 ng/mL human EGF recombinant protein (Thermo Fisher Scientific, cat. PHG0311). […]

[1] = second compound 0.00316 µM, first compound 0.0316 µM
[2] = second compound 0.00316 µM, first compound 0.1 µM
[3] = second compound 0.00316 µM, first compound 0.316 µM
[4] = second compound 0.00316 µM, first compound 1 µM
[5] = second compound 0.01 µM, first compound 0.0316 µM
[6] = second compound 0.01 µM, first compound 0.1 µM
[7] = second compound 0.01 µM, first compound 0.316 µM
[8] = second compound 0.01 µM, first compound 1 µM
[9] = second compound 0.0316 µM, first compound 0.0316 µM
[10] = second compound 0.0316 µM, first compound 0.1 µM
[11] = second compound 0.0316 µM, first compound 0.316 µM
[12] = second compound 0.0316 µM, first compound 1 µM
[13] = second compound 0.1 µM, first compound 0.0316 µM
[14] = second compound 0.1 µM, first compound 0.1 µM
[15] = second compound 0.1 µM, first compound 0.316 µM
[16] = second compound 0.1 µM, first compound 1 µM
[17] = second compound 0.316 µM, first compound 0.0316 µM
[18] = second compound 0.316 µM, first compound 0.1 µM
[19] = second compound 0.316 µM, first compound 0.316 µM
[20] = second compound 0.316 µM, first compound 1 µM
[21] = second compound 1 µM, first compound 0.0316 µM
[22] = second compound 1 µM, first compound 0.1 µM
[23] = second compound 1 µM, first compound 0.316 µM
[24] = second compound 1 µM, first compound 1 µM
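Also: spheroids exposed to agents for 7 days before viability read.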

CCN1CCN(Cc2ccc(Nc3ncc(F)c(-c4cc(F)c5nc(C)n(C(C)C)c5c4)n3)nc2)CC1 + CC(Nc1ccc2c(c1)OCCn1cc(N3C(=O)OCC3C(F)F)nc1-2)C(N)=O
inactive: viability, T/C (second compound 0.00316 µM, first compound 0.00316 µM) 92% | viability, T/C (second compound 0.00316 µM, first compound 0.01 µM) 103% | viability, T/C [1] 98% | viability, T/C [2] 95.6% | viability, T/C [3] 95.2% | viability, T/C [4] 93.1% | viability, T/C (second compound 0.01 µM, first compound 0.00316 µM) 89.4% | viability, T/C (second compound 0.01 µM, first compound 0.01 µM) 103% | viability, T/C [5] 95.1% | viability, T/C [6] 106% | viability, T/C [7] 123% | viability, T/C [8] 70.1% | viability, T/C (second compound 0.0316 µM, first compound 0.00316 µM) 104% | viability, T/C (second compound 0.0316 µM, first compound 0.01 µM) 96.7% | viability, T/C [9] 94.2% | viability, T/C [10] 97.3% | viability, T/C [11] 102% | viability, T/C [12] 53% | viability, T/C (second compound 0.1 µM, first compound 0.00316 µM) 91.2% | viability, T/C (second compound 0.1 µM, first compound 0.01 µM) 102% | viability, T/C [13] 94.1% | viability, T/C [14] 94.1% | viability, T/C [15] 69% | viability, T/C [16] 28.1% | viability, T/C (second compound 0.316 µM, first compound 0.00316 µM) 87.7% | viability, T/C (second compound 0.316 µM, first compound 0.01 µM) 77.5% | viability, T/C [17] 77.8% | viability, T/C [18] 69.7% | viability, T/C [19] 35% | viability, T/C [20] 23.4% | viability, T/C (second compound 1 µM, first compound 0.00316 µM) 76.9% | viability, T/C (second compound 1 µM, first compound 0.01 µM) 56.7% | viability, T/C [21] 48.6% | viability, T/C [22] 43% | viability, T/C [23] 32.1% | viability, T/C [24] 25%
0.0295 µM: IC50 (second compound 1 µM)
0.191 µM: IC50 (second compound 0.316 µM)
0.539 µM: IC50 (second compound 0.1 µM)
> 1 µM: IC50 (second compound 0.00316 µM) | IC50 (second compound 0.01 µM) | IC50 (second compound 0.0316 µM)

Cn1ncc(Cl)c1-c1cc(C(=O)NC(CN)Cc2cccc(F)c2)sc1Cl (centres undefined) + CC(Nc1ccc2c(c1)OCCn1cc(N3C(=O)OCC3C(F)F)nc1-2)C(N)=O
2.57 µM: IC50 (second compound 0.0316 µM)
1.82 µM: IC50 (second compound 0.1 µM)
0.193 µM: IC50 (second compound 1 µM)
3.09 µM: IC50 (second compound 0.01 µM)
inactive: viability, T/C [1] 100% | viability, T/C [2] 99% | viability, T/C [3] 83.8% | viability, T/C [4] 80.8% | viability, T/C (second compound 0.00316 µM, first compound 3.16 µM) 58.9% | viability, T/C (second compound 0.00316 µM, first compound 10 µM) 38.1% | viability, T/C [5] 107% | viability, T/C [6] 107% | viability, T/C [7] 100% | viability, T/C [8] 86.2% | viability, T/C (second compound 0.01 µM, first compound 3.16 µM) 48.5% | viability, T/C (second compound 0.01 µM, first compound 10 µM) 38.2% | viability, T/C [9] 118% | viability, T/C [10] 99.6% | viability, T/C [11] 82.4% | viability, T/C [12] 62% | viability, T/C (second compound 0.0316 µM, first compound 3.16 µM) 47.6% | viability, T/C (second compound 0.0316 µM, first compound 10 µM) 35.1% | viability, T/C [13] 96.6% | viability, T/C [14] 89.5% | viability, T/C [15] 81.8% | viability, T/C [16] 55.8% | viability, T/C (second compound 0.1 µM, first compound 3.16 µM) 43.9% | viability, T/C (second compound 0.1 µM, first compound 10 µM) 25.9% | viability, T/C [17] 96% | viability, T/C [18] 87.8% | viability, T/C [19] 57.5% | viability, T/C [20] 55.6% | viability, T/C (second compound 0.316 µM, first compound 3.16 µM) 38.5% | viability, T/C (second compound 0.316 µM, first compound 10 µM) 23.3% | viability, T/C [21] 89.4% | viability, T/C [22] 55.2% | viability, T/C [23] 45.4% | viability, T/C [24] 32.9% | viability, T/C (second compound 1 µM, first compound 3.16 µM) 33% | viability, T/C (second compound 1 µM, first compound 10 µM) 19.6%
1.12 µM: IC50 (second compound 0.316 µM)
5.4 µM: IC50 (second compound 0.00316 µM)
